According to patent US11696917B2, “Agent enhancing antitumor effect using pyrazolo[3,4-d]pyrimidine compound” (TAIHO PHARMACEUTICAL CO., LTD., priority 2017, dated 2023):

Experiments:
[1] = test system: KPL-4 (human breast cancer); assay: Combination of Compound 1 and other antitumor agents (in vitro), CellTiter-Glo, median effect method; format: cell-based
Method: (§1) The supplier of each reagent, the suppliers of tumor cell lines, the media used, and the numbers of cells to be inoculated are shown in the tables below.
(§2) The cells were inoculated at 20 μL/well to a 384-well culture plate (Corning Inc.). The plate inoculated with the cells were cultured in an incubator set to 37° C. and 5% CO2. On the day following inoculation, each of mixed solutions of Compound 1 and each other antitumor agent at varying combinations of concentrations was added to the cells. Specifically, 8 serial dilutions (including (0 nM)) of Compound 1 and 10 serial dilutions (including (0 nM)) of the other antitumor agent were prepared using Leibovitz's L-15 medium containing 10% FBS, or ATCC formulated RPMI-1640 medium containing 10% FBS. Drug solutions in which equal amounts of the respective serial dilutions of the compounds were dispensed were mixed at a ratio of 1:1 to prepare a total of 80 mixed drug solutions including every combination. Each of these mixed drug solutions was added at 5 μL/well (N=4) to the plate, followed by further culture for 3 days under conditions of 37° C. and 5% CO2.
(§3) Three days later, CellTiter-Glo™ 2.0 Reagent (Promega Corporation) was added thereto at 25 μL/well, and chemiluminescence was measured using a plate reader (EnSpire® Multimode Plate Reader, PerkinElmer Japan Co., Ltd.).
(§4) The enhancement of an effect by combined use of the drugs was evaluated according to a method known in the art (a method described in Trends Pharmacol. Sci., 4, 450-454, 1983 or Pharmacol Rev., 58 (3), 621-81, 2006).
(§5) An average value from 4 wells of each combination was calculated from the obtained data, and a cell survival rate normalized against a control supplemented with a medium containing a vehicle was calculated. A Fa (fraction of affect) value was calculated by subtracting the cell survival rate from 1. Median effect analysis software CalcuSyn 2.0 (CalcuSyn, Inc.) for calculation by the median effect method was used in the calculation of CI.
(§6) As for the combinations of the concentrations of both the drugs for calculating CI, a Fa value closer to 1 presumably means a concentration range in which one of the drugs had too strong an effect, and a Fa value closer to 0 presumably means a concentration range in which any of the drugs had too weak an effect. Since these concentration ranges were not appropriate for the discussion of a synergistic effect, combinations that satisfied 0.2 S Fa 0.8 were extracted from the combinations of the respective concentrations of Compound 1 and the other antitumor agent on the basis of the calculated Fa value.
(§7) An effect of combined use was determined as shown in the table below (Pharmacol Rev., 58 (3), p. 621-81, 2006).

[2] = test system: SK-BR-3 (human breast cancer); assay: as above; format: cell-based
Method: as §1, §2, §3, §4, §5, §6, §7

[3] = Compound 1 68.6 nM + Paclitaxel 0.0229 nM, ratio 1:0.00033, KPL-4
[4] = Compound 1 68.6 nM + Paclitaxel […], ratio 1:0.00011, KPL-4
[5] = Compound 1 206 nM + Paclitaxel 0.617 nM, ratio 1:0.0030, KPL-4
[6] = Compound 1 206 nM + Paclitaxel 1.85 nM, ratio 1:0.0090, KPL-4
[7] = Compound 1 617 nM + Paclitaxel 1.85 nM, ratio 1:0.0030, KPL-4
[8] = Compound 1 1852 nM + Paclitaxel 1.85 nM, ratio 1:0.0010, KPL-4
[9] = Compound 1 5556 nM + Paclitaxel 1.85 nM, ratio 1:0.00033, KPL-4
[10] = Compound 1 5556 nM + Paclitaxel 5.56 nM, ratio 1:0.0010, KPL-4
[11] = Compound 1 16667 nM + Paclitaxel 1.85 nM, ratio 1:0.00011, KPL-4
[12] = Compound 1 50000 nM + Paclitaxel 1.85 nM, ratio 1:0.000037, KPL-4
[13] = Compound 1 0.412 nM + Cisplatin 6185 nM, ratio 1:15030, SK-BR-3
[14] = Compound 1 1.24 nM + Cisplatin 6185 nM, ratio 1:5010, SK-BR-3
[15] = Compound 1 3.70 nM + Cisplatin 687 nM, ratio 1:186, SK-BR-3
[16] = Compound 1 3.70 nM + Cisplatin 2062 nM, ratio 1:557, SK-BR-3
[17] = Compound 1 3.70 nM + Cisplatin 6185 nM, ratio 1:1670, SK-BR-3

C=CC(=O)N1CCC[C@@H](n2nc(C(=O)Nc3ccc(CC(=O)N(C)C)c(C)c3C)c3c(N)ncnc32)C1 [Compound 1, (R)-1-(1-acryloylpiperidin-3-yl)-4-amino-N-(4-(2-(dimethylamino)-2-oxoethyl)-2,3-dimethylphenyl)-1H-pyrazolo[3,4-d]pyrimidine-3-carboxamide]
CI [1, 3]: 0.03 | Fa [1, 3]: 0.44 | CI [1, 4]: 0.15 | Fa [1, 4]: 0.32 | CI [1, 5]: 0.50 | Fa [1, 5]: 0.33 | CI [1, 6]: 0.30 | Fa [1, 6]: 0.52 | CI [1, 7]: 0.31 | Fa [1, 7]: 0.54 | CI [1, 8]: 0.36 | Fa [1, 8]: 0.55 | CI [1, 9]: 0.48 | Fa [1, 9]: 0.57 | CI [1, 10]: 0.44 | Fa [1, 10]: 0.78 | CI [1, 11]: 0.38 | Fa [1, 11]: 0.66 | CI [1, 12]: 0.13 | Fa [1, 12]: 0.86 | CI [2, 13]: 0.86 | Fa [2, 13]: 0.50 | CI [2, 14]: 0.84 | Fa [2, 14]: 0.55 | CI [2, 15]: 0.78 | Fa [2, 15]: 0.22 | CI [2, 16]: 0.79 | Fa [2, 16]: 0.37 | CI [2, 17]: 0.63 | Fa [2, 17]: 0.65
